# From patent US20080248076A1, “ANTIMICROBIAL RUBBER BANDS” (priority 2007, published 2008)
# Where “and” joins values, the source holds several entries; their conditions need not be identical. Equal values may be shown once.
# Experiments:
# [1] = test system: all of the organisms tested (Escherichia coli, Staphylococcus aureus, Pseudomonas aeruginosa, Pasteurella multocida); assay: Growth Inhibitor Test, overall conclusion; assay type: cell-based; conditions: versus sodium hypochlorite at 100 ppm disinfection concentration
# Text: (§1) Test Scope: The Growth Inhibitor Test was used to determine the toxicity of a rubber band containing zinc pyrithione. Any presence of toxic residues in the test material (rubber band) will inhibit bacterial growth in the agar medium. A zone of inhibition or no growth of test organism around the test material indicates the presence of toxic residues in the test material. The intensity of inhibition is indicative of the concentration of the toxic agent.
# (§2) Test Objective: Four (4) test organisms were used in this assay to determine toxicity. Each organism was suspended in specific agar medium, incubated at 35° C. for 48 hours, and then read to determine growth or no growth of test organism. Each test organism was grown individually in a Petri plate and the test material was planted unto the agar plate to determine the outcome. If no toxic residues were present in the test material, then the test bacteria grew around and under the test medium producing a “lawn effect.” If inhibitory substances were present in the test material, it would diffuse into the agar medium and prevent the growth of bacterial in the medium. The larger the zone of inhibition, the higher the concentration of toxic substances.
# Test Organisms: The following four (4) organisms were employed: Escherichia coli, Staphylococcus aureus, Pseudomonas aeruginosa, and Pasteurella multocida. […]
# Pseudomonas aeruginosa [2] = conditions: it has been reported; cited from earlier work
# Staphylococcus aureus = assay: Growth Inhibitor Test (zone of inhibition / kill zone on agar); assay type: cell-based; conditions: Baird Parker Agar, 48 hours at 32.0° C, rubber with 1000 ppm zinc pyrithione, Sodium Hypochlorite @ 100 ppm on paper disc
# Text: as §1, §2
# (§3) Test Organisms: The following four (4) organisms were employed: Escherichia coli, Staphylococcus aureus, Pseudomonas aeruginosa, and Pasteurella multocida. Each test organism's concentration was estimated to be 100,000 cfu to 1,000,000 cfu per milliliter.
# (§4) Materials used included: 1. Baird Parker Agar for Staphylococcus aureus; 2. Standard Methods Agar for E. coli and Pseudomonas aeruginosa; 3. Tryptic Soy Agar for Pasteurella multocida; 4. 100 ppm chlorinated water to serve as a positive control; 5. Distilled water to serve as the negative control; 6. Quebec Colony Counter; 7. Incubator at 32.0 C; 8. Petri plates (85 mm diameter); 9. Vernier calibrators; 10.
# Pseudomonas aeruginosa [3] = assay: as above; assay type: cell-based; conditions: Standard Methods Agar, 48 hours at 32.0° C, rubber with 1000 ppm zinc pyrithione, Sodium Hypochlorite @ 100 ppm on paper disc
# Text: as §1, §2, §3, §4
# Pasteurella multocida = assay: as above; assay type: cell-based; conditions: Tryptic Soy Agar, 48 hours at 32.0° C, rubber with 1000 ppm zinc pyrithione, Sodium Hypochlorite @ 100 ppm on paper disc
# Text: as §1, §2, §3, §4
# Escherichia coli = assay: as above; assay type: cell-based; conditions: E. coli, Standard Methods Agar, 48 hours at 32.0° C; heading says test organism died, assay invalid; Sodium Hypochlorite @ 100 ppm on paper disc
# Text: as §1, §2, §3, §4
compound,measurement,setting,value
"[O-][n+]1ccccc1[S-].[O-][n+]1ccccc1[S-].[Zn+2] [zinc pyrithione, zinc 2-pyridinethiol-n-oxide]",toxicity compared with sodium hypochlorite (similar kill zones),[1],equal to the potency of sodium hypochlorite at 100 ppm
Oc1cc(Cl)ccc1Oc1ccc(Cl)cc1Cl [triclosan],efficacy against Pseudomonas aeruginosa,Pseudomonas aeruginosa [2],little or no efficacy
OCl [Sodium Hypochlorite],zone of inhibition or kill zone,Staphylococcus aureus,3.0 cm and 2.5 cm
same,kill zone,Pseudomonas aeruginosa [3],3.1 cm and 3.0 cm
same,zone of inhibition or kill zone,Pasteurella multocida,3.5 cm and 3.2 cm
same,zone of inhibition or kill zone,Escherichia coli,1.6 cm and 1.4 cm
